This passage reports Activity, IC50 and viability results from ChEMBL document CHEMBL5360585, “Spectasterols, Aromatic Ergosterols with 6/6/6/5/5, 6/6/6/6, and 6/6/6/5 Ring Systems from Aspergillus spectabilis” (J Nat Prod, 2023).

Assay [1] deals with HL-60. Briefly: Induction of apoptosis in human HL-60 cells assessed as necrotic cells at 14 uM incubated for 48 hrs by Annexin V-FITC/PI staining based flow cytometric analysis (reference value: 0.39%). In kind it is functional.
The subject of assay [2] is RAW264.7. Description: Antiinflammatory activity in LPS-induced mouse RAW264.7 cells assessed as reduction in iNOS mRNA expression at 5 to 20 uM incubated for 24 hrs by qRT-PCR analysis. The assay is classed as functional, cell-based. To be noted: dose 5-20 µM.
Assay [3] relates to HL-60. Description: Cytotoxicity against human HL-60 cells assessed as inhibition of cell growth incubated for 48 hrs by CCK8 assay. In kind it is functional, cell-based. To be noted: HL-60, 48 h.
The test system of assay [4] is HL-60. Briefly: Induction of cell cycle arrest in human HL-60 cells assessed as accumulation of G1 phase cells at 7 uM incubated for 48 hrs (reference value: 42.0%). In kind it is functional.
Assay [5] concerns RAW264.7. Description: Antiinflammatory activity in LPS-induced mouse RAW264.7 cells assessed as reduction in COX-2 protein expression by Western blot analysis. In kind it is functional, cell-based. To be noted: dose 5-20 µM.
In assay [6] the test system is HL-60. Description: Induction of apoptosis in human HL-60 cells assessed as early apoptotic cells at 7 uM incubated for 48 hrs by Annexin V-FITC/PI staining based flow cytometric analysis (reference value: 11.0%). In kind it is functional.
For assay [7], the system named is HL-60. Description: Induction of apoptosis in human HL-60 cells assessed as necrotic cells at 7 uM incubated for 48 hrs by Annexin V-FITC/PI staining based flow cytometric analysis (reference value: 0.39%). The assay is classed as functional.
The test system of assay [8] is HL-60. Briefly: Induction of apoptosis in human HL-60 cells assessed as late apoptotic cells at 7 uM incubated for 48 hrs by Annexin V-FITC/PI staining based flow cytometric analysis (reference value: 4.53%). The assay is classed as functional.
Assay [9] relates to RAW264.7. Description: Antiinflammatory activity in mouse RAW264.7 cells assessed as inhibition of LPS-induced nuclear translocation of NF-kappaB p65 preincubated with compound for 1 hrs followed by LPS stimulation and measured after 24 hrs by DAPI staining based immunofluorescence analysis. To be noted: dose 5-20 µM, time 25.0 hrs. The assay is classed as functional, cell-based.

In assay [10] the test system is HL-60. Briefly: Induction of apoptosis in human HL-60 cells assessed as late apoptotic cells at 14 uM incubated for 48 hrs by Annexin V-FITC/PI staining based flow cytometric analysis (reference value: 4.53%). In kind it is functional.
The subject of assay [11] is HL-60. Briefly: Induction of apoptosis in human HL-60 cells assessed as early apoptotic cells at 14 uM incubated for 48 hrs by Annexin V-FITC/PI staining based flow cytometric analysis (reference value: 11.0%). The assay is classed as functional.
Assay [12] relates to HL-60. Description: Induction of cell cycle arrest in human HL-60 cells assessed as S phase cells at 14 uM incubated for 48 hrs (reference value: 32.3%). The assay is classed as functional.
In assay [13] the test system is HL-60. Briefly: Induction of apoptosis in human HL-60 cells assessed as viable cells at 7 uM incubated for 48 hrs by Annexin V-FITC/PI staining based flow cytometric analysis (reference value: 84.1%). In kind it is functional. To be noted: read-out: Activity.
Assay [14] has as its system HL-60. Briefly: Induction of cell cycle arrest in human HL-60 cells assessed as G2 phase cells at 14 uM incubated for 48 hrs (reference value: 23.7%). The assay is classed as functional.
The subject of assay [15] is HL-60. Description: Induction of cell cycle arrest in human HL-60 cells assessed as S phase cells at 7 uM incubated for 48 hrs (reference value: 32.3%). The assay is classed as functional.
The subject of assay [16] is HL-60. Description: Induction of cell cycle arrest in human HL-60 cells assessed as G2 phase cells at 7 uM incubated for 48 hrs (reference value: 23.7%). In kind it is functional.
Assay [17] deals with HL-60. Description: Induction of cell cycle arrest in human HL-60 cells assessed as accumulation of G1 phase cells at 14 uM incubated for 48 hrs (reference value: 42.0%). In kind it is functional.
For assay [18], the system named is RAW264.7. Description: Antiinflammatory activity in mouse RAW264.7 cells assessed as inhibition of LPS-induced NO production preincubated with compound for 1 hrs followed by LPS stimulation and measured after 24 hrs by Griess reagent based method. The assay is classed as functional, cell-based.
The test system of another assay is SU-DHL-2. Description: Cytotoxicity against human SUDHL2 cells assessed as inhibition of cell growth incubated for 48 hrs by CCK8 assay. In kind it is functional, cell-based. To be noted: SU-DHL-2, 48 h.
Assay [19] has as its system RAW264.7. Briefly: Antiinflammatory activity in LPS-induced mouse RAW264.7 cells assessed as reduction in IL-1beta mRNA expression at 5 to 20 uM incubated for 24 hrs by qRT-PCR analysis. In kind it is functional, cell-based. To be noted: dose 5-20 µM.
Assay [20] deals with HL-60. Description: Induction of apoptosis in human HL-60 cells assessed as viable cells at 14 uM incubated for 48 hrs by Annexin V-FITC/PI staining based flow cytometric analysis (reference value: 84.1%). The assay is classed as functional. To be noted: read-out: Activity.
Assay [21] relates to RAW264.7. Briefly: Antiinflammatory activity in LPS-induced mouse RAW264.7 cells assessed as reduction in COX2 mRNA expression at 5 to 20 uM incubated for 24 hrs by qRT-PCR analysis. The assay is classed as functional, cell-based. To be noted: dose 5-20 µM.

The source made the active and inactive calls. The calls are words filed in the database; no cut-off is given here.

Consider `Cc1cc2c(c3c1C[C@@H](O)CC3)CC[C@@]1(C)[C@H]2CCC(=O)[C@@]1(C)/C=C/[C@H](C)C(C)C`, for which the Activity was 2.95% with HL-60 [1]; 53.9% with HL-60 [4]; “Dose-Dependent Effect” in the assay on RAW264.7 [5]; 12.1% in the assay with HL-60 [6]; 0.57% in the assay with HL-60 [7]; 11% with HL-60 [8]. Further, the Activity entry in the assay on RAW264.7 [9] is “Dose-Dependent Effect”; in the assay on HL-60 [10], 53.8%; with HL-60 [11], 21.9%; with HL-60 [12], 24.9%; with HL-60 [14] it was 9.7%; in the assay with HL-60 [15], 24.7%. Also, the figures for the Activity in the assay with HL-60 [16] and in the assay with HL-60 [17] were 16.1% and 62.3%, respectively. Moreover, the outcome in the assay with RAW264.7 [2], in the assay with RAW264.7 [19] and in the assay with RAW264.7 [21] was Active. The IC50 came to 8.7 µM in the assay with HL-60 [3], 19.3 µM with RAW264.7 [18] and 6.9 µM in the assay with SU-DHL-2. Also, the viability at 7 µM with HL-60 [13] worked out at 76.3%. The viability at 14 µM in the assay on HL-60 [20] came to 21.3%.
